In brackets after ≈: the same amount, converted by molar mass.
Columns and labels:
human topoisomerase II = biological target: T1, human topoisomerase II (Homo sapiens, UniProt P11388); experiment: Cell-free topoisomerase II DNA relaxation/cleavage assay with supercoiled pHOT1 plasmid DNA; format: biochemical; details: compared with control supercoiled DNA
T1 construct: purchased Topogen
Excerpt: The ability of Topo II to generate DNA damage in the presence of Topo II-targeting agents led to the hypothesis that an important determinant of drug sensitivity was related to the overall level of Topo II[17]. […] Such findings encouraged us to evaluate the effect of the isolates on Topo II activity. In order to confirm whether the DNA damage-induced by the isolated sesterterpenoids involved the inhibition of Topo II activity, a cell-free DNA cleavage assay using an enzyme-mediated negatively supercoiled pHOT1 plasmid DNA was applied. […] These marine terpenoids suppressed Topo II activity, resulting in the inhibition of supercoiled DNA relaxation in a dose-dependent manner (Fig. 5A). […] To determine whether the apoptotic mechanism of these compounds affects γH2AX (as a biomarker of DNA damage) induction, Western blot analysis was employed to examine the activation of γH2AX.
The assay was performed as described previously. […] Reactions were terminated by adding 2 μL of 10% SDS to facilitate trapping the enzyme in a cleavage complex, followed by the addition of 2.5 μL of proteinase K (50 μg/mL) to digest the bound protein (incubated at 37 °C for 15 min) and finally by adding 0.1 volume of the sample loading dye. The DNA products were analyzed via electrophoresis through vertical 2% agarose gels at 2 voltage/cm in 0.5 × TAE buffer. Gels were stained with ethidium bromide and photographed using an Eagle Eye II system (Stratagene, La Jolla, CA, USA). The quantitative analysis of the DNA Topo II activity was performed as described previously.

LNCaP cells = experiment: MTT antiproliferative assay, prostate cancer LNCaP cells; details: Homo sapiens, 72 h, read-out: IC50, cytotoxicity, Prostate LNCaP
Excerpt: Several cancer cell lines including leukemia K562, Molt 4, and HL 60 cells, prostate cancer LNCaP cells, colon cancer DLD-1 cells and breast cancer T-47D cells were used to evaluate the antiproliferative activity.
The cell lines were obtained from the American Type Culture Collection (ATCC, Manassas, VA, USA). […] Dimethyl sulfoxide (DMSO), 3-(4,5-dimethylthiazol-2-yl)-2,5-diphenyl-tetrazolium bromide (MTT) and all other chemicals were purchased from Sigma-Aldrich (St. Louis, MO, USA).

T1 sequence (P11388 whole entry): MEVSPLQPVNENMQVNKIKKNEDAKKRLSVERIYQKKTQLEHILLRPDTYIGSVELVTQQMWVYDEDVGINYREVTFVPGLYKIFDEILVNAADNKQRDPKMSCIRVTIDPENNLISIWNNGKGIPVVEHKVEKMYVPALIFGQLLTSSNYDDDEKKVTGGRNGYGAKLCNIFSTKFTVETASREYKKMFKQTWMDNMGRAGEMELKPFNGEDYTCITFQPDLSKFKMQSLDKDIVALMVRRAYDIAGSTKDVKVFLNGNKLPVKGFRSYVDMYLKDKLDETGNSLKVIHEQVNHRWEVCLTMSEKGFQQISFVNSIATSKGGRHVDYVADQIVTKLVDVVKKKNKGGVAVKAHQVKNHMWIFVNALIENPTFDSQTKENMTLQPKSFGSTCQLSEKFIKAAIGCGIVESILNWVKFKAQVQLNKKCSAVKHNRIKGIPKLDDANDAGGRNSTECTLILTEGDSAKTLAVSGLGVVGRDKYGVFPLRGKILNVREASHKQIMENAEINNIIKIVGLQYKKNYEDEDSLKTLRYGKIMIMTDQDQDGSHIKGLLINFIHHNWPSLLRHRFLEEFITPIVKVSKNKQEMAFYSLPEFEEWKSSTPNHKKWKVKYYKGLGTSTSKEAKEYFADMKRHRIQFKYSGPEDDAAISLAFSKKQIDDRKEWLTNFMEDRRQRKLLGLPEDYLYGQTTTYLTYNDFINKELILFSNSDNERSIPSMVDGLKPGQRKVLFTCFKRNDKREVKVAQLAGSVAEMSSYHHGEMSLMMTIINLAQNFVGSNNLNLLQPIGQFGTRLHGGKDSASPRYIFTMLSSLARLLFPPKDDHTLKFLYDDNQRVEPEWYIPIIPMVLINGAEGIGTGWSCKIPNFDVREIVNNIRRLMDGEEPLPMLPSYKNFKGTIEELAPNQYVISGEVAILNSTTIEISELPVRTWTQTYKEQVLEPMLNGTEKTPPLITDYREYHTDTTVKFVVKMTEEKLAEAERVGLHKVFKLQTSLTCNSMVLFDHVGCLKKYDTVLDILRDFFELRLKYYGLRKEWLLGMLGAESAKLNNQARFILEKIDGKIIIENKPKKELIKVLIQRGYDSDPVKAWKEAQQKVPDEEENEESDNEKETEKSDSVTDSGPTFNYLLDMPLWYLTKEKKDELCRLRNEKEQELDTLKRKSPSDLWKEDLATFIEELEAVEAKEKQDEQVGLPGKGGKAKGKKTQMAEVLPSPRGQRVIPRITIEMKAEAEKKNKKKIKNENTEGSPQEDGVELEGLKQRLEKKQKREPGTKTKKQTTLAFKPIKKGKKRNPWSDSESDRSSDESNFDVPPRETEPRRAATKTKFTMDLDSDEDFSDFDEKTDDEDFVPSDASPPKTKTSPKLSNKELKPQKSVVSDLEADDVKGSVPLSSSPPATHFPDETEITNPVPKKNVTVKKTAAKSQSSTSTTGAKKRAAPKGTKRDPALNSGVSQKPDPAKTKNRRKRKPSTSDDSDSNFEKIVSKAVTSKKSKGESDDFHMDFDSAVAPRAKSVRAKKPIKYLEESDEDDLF

Work on `CC[C@@]1(C)CCC[C@]2(C)[C@H]3C[C@@H](OC(=O)C[C@@H](C)O)[C@]4(C)[C@@H](C=O)C(C(C)=O)=CC[C@H]4[C@]3(C)CC[C@@H]12` (relative stereo) [Compound 1, 12β-(3′β-hydroxybutanoyloxy)-20,24-dimethyl-24-oxo-scalara-16-en-25-al] yielded an inhibition at 0.08 µg/mL (human topoisomerase II; 0.08 μg/mL) of 12%, an inhibition at 0.312 µg/mL (human topoisomerase II; 0.312 μg/mL) of 13% and an inhibition at 1.25 µg/mL (human topoisomerase II; 1.25 μg/mL) of 17%. The inhibition at 5 µg/mL (human topoisomerase II; 5 μg/mL) was 20%, the inhibition at 20 µg/mL (human topoisomerase II; 20 μg/mL) was 99% and the IC50 (LNCaP cells) was 13.9 mg/L (≈ 27.7 µM).

— PMC5086919, “Antileukemic Scalarane Sesterterpenoids and Meroditerpenoid from Carteriospongia (Phyllospongia) sp., Induce Apoptosis via Dual Inhibitory Effects on Topoisomerase II and Hsp90” (Scientific Reports, 2016)
